Measurements taken from ChEMBL document CHEMBL1201862, “PubChem BioAssay data set” (2004).
Active and inactive are the calls of the source.

Key:
[1] = target: Dual specificity tyrosine-phosphorylation-regulated kinase 1A (Rattus norvegicus, UniProt Q63470); assay type: biochemical, Homo sapiens
[2] = target: T1, Beta-lactamase (Pseudomonas aeruginosa, UniProt Q79MP6); assay: inhibition of IMP-1 beta-lactamase activity – biochemical, epi-absorbance, selectivity assay for VIM-2 inhibitor project, dose response (AID 1920)
T1 sequence (Q79MP6 whole entry): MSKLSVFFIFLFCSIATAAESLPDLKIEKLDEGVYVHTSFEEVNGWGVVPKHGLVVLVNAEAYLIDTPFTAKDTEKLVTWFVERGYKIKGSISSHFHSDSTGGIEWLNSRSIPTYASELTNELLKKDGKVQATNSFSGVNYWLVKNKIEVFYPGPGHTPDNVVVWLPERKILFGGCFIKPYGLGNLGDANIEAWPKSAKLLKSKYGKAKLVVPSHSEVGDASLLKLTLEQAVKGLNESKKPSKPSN

[3] = target: T1, Beta-lactamase; assay: […] counterscreen for selective VIM-2 inhibitors: dose response biochemical high throughput screening assay to identify inhibitors of IMP-1 metallo-beta-lactamase.
[4] = target: Beta-lactamase (Salmonella choleraesuis (strain SC-B67), UniProt Q5J463); assay: Epi-absorbance-based counterscreen for selective VIM-2 inhibitors: dose response biochemical high throughput screening assay to identify inhibitors of TEM-1 serine-beta-lactamase.
Sequence of Beta-lactamase (Salmonella choleraesuis (strain SC-B67), UniProt Q5J463) (Q5J463 whole entry): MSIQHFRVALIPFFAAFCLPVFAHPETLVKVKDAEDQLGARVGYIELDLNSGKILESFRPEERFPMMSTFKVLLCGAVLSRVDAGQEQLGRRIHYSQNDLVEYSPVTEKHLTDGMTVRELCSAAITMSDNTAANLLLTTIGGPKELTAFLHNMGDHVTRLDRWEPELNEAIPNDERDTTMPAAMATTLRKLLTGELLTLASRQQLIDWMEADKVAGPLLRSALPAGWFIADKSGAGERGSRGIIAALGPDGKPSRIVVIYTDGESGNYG

[5] = Inhibition of Plasmodium falciparum NF54 Measured in Cell-Based System Using Plate Reader - 2138-11_Inhibitor_Dose_CherryPick_Activity.; assay type: functional
[6] = mouse fibroblast viability loss – cell-based, cherry-pick samples, set 2, cytotoxicity control for T. cruzi growth inhibitor project, dose response (AID 651817); assay type: functional; conditions: NIH3T3
[7] = L6 myocyte viability loss – cell-based, plate reader, cherry-pick, cytotoxicity control, dose response (AID 651896); assay type: functional
[8] = antileishmanial activity on axenic amastigotes – plate reader, cherry pick, dose response (AID 651891); assay type: functional, cell-based; conditions: Leishmania donovani
[9] = African trypanosome bloodstream form growth inhibition – STIB900 strain, plate reader, cherry pick, dose response (AID 651893); assay type: functional, cell-based, Trypanosoma brucei rhodesiense; conditions: Trypanosoma brucei
[10] = Inhibition of T. cruzi Tulahuen strain amastigotes in L-6 muscle cells Measured in Cell-Based and Microorganism Combination System Using Plate Reader - 2138-03_Inhibitor_Dose_CherryPick_Activity.; assay type: functional; conditions: Rattus norvegicus, L6
[11] = intracellular Trypanosoma cruzi inhibitors in host cells – cell-based, plate reader, cherry-pick samples, set 3, dose response (AID 651818); assay type: functional;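 note: compounds incubated with infected cells for about four days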
[12] = anti-trypanosomal activity in BESM host cells – imaging, CA-I/72 strain, bovine embryo skeletal muscle, dry powder, dose response (AID 651885); assay type: functional, cell-based
[13] = target: Caspase-7 (Homo sapiens, UniProt P55210); assay: caspase-7 enzyme inhibition, selectivity check – biochemical, DEVD-R110 fluorescence, cherry-pick, selectivity assay for caspase-6 inhibitor project, dose response (AID 743295); assay type: functional
Sequence of Caspase-7 (P55210 24-198 limits assumed): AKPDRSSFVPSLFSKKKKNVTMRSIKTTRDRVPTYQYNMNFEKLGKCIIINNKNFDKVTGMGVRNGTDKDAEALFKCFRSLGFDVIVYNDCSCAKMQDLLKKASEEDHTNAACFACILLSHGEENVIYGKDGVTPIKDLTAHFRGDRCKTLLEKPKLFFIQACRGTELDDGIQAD
Sequence of Caspase-7 (P55210 207-303 limits assumed): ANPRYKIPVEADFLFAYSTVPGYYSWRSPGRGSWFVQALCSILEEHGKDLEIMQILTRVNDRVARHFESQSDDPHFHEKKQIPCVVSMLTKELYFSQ

[14] = target: T2, Caspase-6 (Homo sapiens, UniProt P55212); assay: inhibition of CASP6 peptide cleavage – biochemical, VEID-R110 fluorescence, cherry-pick, dose response (AID 720632)
T2 sequence (P55212 whole entry): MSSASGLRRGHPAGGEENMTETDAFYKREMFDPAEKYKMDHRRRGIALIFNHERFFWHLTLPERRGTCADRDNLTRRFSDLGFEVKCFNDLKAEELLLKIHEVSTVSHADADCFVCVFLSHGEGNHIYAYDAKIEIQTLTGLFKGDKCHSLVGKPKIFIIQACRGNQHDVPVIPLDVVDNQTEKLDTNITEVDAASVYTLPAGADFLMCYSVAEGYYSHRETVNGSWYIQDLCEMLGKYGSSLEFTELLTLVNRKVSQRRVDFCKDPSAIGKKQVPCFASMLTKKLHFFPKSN

[15] = target: Caspase-8 (Homo sapiens, UniProt Q14790); assay: inhibitors of purified CASP8 protease – biochemical, Z-IETD-R110 fluorescence, cherry-picked samples, selectivity assay for caspase-6 inhibitor project, dose response (AID 743294)
Sequence of Caspase-8 (Q14790 217-374 limits assumed): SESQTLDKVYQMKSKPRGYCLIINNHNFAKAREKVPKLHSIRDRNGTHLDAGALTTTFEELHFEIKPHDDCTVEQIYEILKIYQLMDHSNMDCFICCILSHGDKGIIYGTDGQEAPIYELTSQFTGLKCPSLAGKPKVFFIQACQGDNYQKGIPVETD
Sequence of Caspase-8 (Q14790 385-479 limits assumed): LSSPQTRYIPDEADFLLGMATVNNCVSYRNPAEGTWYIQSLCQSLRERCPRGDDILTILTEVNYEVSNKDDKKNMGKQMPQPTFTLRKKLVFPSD

[16] = target: T3, Caspase-3 (Homo sapiens, UniProt P42574); assay: Dose-response confirmation of uHTS inhibitor hits of Sentrin-Specific Protease 8 in a Caspase-3 Fluorescence assay.; assay type: functional
T3 sequence (P42574 whole entry): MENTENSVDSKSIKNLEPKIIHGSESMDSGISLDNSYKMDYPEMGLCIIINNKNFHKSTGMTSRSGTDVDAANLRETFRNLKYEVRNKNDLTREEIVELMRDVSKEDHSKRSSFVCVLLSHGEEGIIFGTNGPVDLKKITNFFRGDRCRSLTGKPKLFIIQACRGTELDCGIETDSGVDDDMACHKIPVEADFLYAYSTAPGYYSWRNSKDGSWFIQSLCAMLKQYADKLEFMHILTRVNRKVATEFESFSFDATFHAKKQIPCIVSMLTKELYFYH

[17] = target: T4, Sentrin-specific protease 8 (Homo sapiens, UniProt Q96LD8); assay type: functional
T4 sequence (Q96LD8 whole entry): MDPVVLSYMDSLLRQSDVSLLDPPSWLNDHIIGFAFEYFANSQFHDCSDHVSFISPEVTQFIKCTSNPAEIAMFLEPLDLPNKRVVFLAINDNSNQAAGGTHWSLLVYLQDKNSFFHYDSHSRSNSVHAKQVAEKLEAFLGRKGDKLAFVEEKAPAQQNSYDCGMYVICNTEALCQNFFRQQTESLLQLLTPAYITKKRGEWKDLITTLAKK

[18] = target: T4, Sentrin-specific protease 8; assay type: functional; remark: listed apart in the source
[19] = target: T5, Caspase-9 (Homo sapiens, UniProt P55211); assay: inhibitors of purified CASP9 protease – biochemical, fluorescence, plate reader, cherry-picked samples, selectivity assay for caspase-6 inhibitor project, dose response (AID 743293)
T5 sequence (P55211 whole entry): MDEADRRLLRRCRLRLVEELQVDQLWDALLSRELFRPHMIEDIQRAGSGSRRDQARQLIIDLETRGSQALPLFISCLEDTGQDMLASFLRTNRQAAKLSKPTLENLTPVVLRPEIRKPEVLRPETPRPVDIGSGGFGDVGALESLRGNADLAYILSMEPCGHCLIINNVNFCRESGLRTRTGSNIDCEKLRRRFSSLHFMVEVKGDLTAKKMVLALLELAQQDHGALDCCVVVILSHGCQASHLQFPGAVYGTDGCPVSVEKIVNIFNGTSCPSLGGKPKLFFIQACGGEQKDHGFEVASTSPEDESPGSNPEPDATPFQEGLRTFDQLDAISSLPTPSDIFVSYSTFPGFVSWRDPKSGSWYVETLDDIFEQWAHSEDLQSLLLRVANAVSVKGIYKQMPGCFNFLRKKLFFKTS

[20] = target: T3, Caspase-3; assay: human caspase-3 protease activity blockade – biochemical, fluorescence, cherry-picked samples, selectivity assay for caspase-6 allosteric inhibitor project, dose response (AID 743291)
[21] = target: Nonstructural protein 1 (Influenza A virus, UniProt Q194T2); assay type: functional, Influenza A virus (A/California/07/2009(H1N1))
Sequence of Nonstructural protein 1 (Q194T2 whole entry): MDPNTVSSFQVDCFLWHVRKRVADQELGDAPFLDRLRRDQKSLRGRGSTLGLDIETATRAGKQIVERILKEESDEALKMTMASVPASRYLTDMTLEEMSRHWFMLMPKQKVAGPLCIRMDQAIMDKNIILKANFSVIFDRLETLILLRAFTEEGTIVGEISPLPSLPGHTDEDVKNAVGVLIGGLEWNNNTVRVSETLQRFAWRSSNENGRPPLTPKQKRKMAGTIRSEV

[22] = target: Albumin (Bos taurus, UniProt P02769); assay: Counterscreen for inhibitors of T-cell receptor (TCR)-CD3 interaction: Fluorescence-based biochemical high throughput dose response assay to identify inhibitors of T-cell receptor (TCR)-CD3 interaction using a TAMRA-labeled BSA probe.; assay type: functional
Sequence of Albumin (P02769 whole entry): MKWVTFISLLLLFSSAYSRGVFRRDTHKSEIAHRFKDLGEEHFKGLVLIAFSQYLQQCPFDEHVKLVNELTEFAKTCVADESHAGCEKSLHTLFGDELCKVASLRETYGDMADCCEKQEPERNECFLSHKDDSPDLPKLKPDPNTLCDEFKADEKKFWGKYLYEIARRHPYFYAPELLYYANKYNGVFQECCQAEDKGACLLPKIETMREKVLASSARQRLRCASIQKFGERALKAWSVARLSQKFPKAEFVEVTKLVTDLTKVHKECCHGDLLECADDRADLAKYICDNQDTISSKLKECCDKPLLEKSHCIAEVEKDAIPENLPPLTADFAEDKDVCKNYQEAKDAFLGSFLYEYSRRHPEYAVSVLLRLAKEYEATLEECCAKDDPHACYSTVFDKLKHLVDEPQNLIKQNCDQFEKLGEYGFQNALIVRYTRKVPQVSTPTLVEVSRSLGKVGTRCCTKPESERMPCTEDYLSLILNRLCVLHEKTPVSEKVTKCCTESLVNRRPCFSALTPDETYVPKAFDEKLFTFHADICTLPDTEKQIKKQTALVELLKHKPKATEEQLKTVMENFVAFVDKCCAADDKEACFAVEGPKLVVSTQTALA

[23] = inhibitors of EBV LMP1 NF-kappaB signaling – cell-based, luciferase reporter, luminescence, dry powder, set 2, dose response (AID 624376); assay type: functional
[24] = target: T6, Sentrin-specific protease 1 (Homo sapiens, UniProt Q9P0U3); assay: SENP1 catalytic domain blockers, concentration series – biochemical, kinetic FRET, dose response (AID 651697); assay type: functional; conditions: read-out: IC50_Mean
T6 sequence (Q9P0U3 whole entry, the tested form may be a part): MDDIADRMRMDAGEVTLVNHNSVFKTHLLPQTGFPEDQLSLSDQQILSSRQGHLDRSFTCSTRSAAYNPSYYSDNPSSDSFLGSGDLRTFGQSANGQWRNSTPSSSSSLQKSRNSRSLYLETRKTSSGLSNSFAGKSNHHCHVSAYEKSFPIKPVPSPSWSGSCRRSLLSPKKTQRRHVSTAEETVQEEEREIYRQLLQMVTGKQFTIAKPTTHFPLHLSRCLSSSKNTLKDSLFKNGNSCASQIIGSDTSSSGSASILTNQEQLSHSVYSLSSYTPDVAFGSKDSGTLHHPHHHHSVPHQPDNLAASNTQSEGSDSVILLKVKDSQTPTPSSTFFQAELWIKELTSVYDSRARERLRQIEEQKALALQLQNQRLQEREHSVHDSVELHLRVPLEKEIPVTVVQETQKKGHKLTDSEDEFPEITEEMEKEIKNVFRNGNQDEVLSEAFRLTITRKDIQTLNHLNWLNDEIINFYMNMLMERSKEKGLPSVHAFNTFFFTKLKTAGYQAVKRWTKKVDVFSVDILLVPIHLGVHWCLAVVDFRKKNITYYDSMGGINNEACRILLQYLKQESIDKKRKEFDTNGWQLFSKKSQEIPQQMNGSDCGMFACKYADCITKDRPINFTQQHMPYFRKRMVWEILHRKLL

[25] = target: T6, Sentrin-specific protease 1; assay: Dose response confirmation of small molecule inhibitors of the catalytic domain of the SUMO protease, SENP1 in a FRET assay.; assay type: functional; conditions: read-out: IC50_Mean
[26] = T. cruzi growth inhibition in host cells, dose response, cell-based, plate reader, dry powder, set 2 (AID 652275); assay type: functional
[27] = target: T4, Sentrin-specific protease 8; assay type: functional; remark: listed apart in the source
[28] = target: Botulinum neurotoxin type F (Clostridium botulinum, UniProt P30996); assay: High-throughput multiplex microsphere dose response for inhibitors of toxin protease, specifically Botulinum neurotoxin light chain F protease, compounds from Cherry Pick 02.; assay type: functional; conditions: read-out: EC50_MICROM
Sequence of Botulinum neurotoxin type F (P30996 1-436 limits assumed): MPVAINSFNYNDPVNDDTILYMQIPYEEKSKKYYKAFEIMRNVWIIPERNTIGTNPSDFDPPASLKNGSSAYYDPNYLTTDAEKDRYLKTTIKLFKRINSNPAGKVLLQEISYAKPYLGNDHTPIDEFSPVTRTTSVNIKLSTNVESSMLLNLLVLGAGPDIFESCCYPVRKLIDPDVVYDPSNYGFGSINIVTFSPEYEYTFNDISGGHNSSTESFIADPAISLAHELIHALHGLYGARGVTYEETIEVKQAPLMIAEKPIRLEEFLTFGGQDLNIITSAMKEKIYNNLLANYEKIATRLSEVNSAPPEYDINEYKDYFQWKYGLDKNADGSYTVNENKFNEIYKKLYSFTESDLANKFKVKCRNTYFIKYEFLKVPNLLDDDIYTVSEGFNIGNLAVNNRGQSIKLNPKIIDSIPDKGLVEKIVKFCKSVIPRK

[29] = target: T7, Sentrin-specific protease 7 (Homo sapiens, UniProt Q9BQF6); assay type: functional;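 note: Luminescence-based dose-response confirmation of ultra-high-throughput screening hits, measuring inhibition of SENP7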
T7 sequence (Q9BQF6 whole entry): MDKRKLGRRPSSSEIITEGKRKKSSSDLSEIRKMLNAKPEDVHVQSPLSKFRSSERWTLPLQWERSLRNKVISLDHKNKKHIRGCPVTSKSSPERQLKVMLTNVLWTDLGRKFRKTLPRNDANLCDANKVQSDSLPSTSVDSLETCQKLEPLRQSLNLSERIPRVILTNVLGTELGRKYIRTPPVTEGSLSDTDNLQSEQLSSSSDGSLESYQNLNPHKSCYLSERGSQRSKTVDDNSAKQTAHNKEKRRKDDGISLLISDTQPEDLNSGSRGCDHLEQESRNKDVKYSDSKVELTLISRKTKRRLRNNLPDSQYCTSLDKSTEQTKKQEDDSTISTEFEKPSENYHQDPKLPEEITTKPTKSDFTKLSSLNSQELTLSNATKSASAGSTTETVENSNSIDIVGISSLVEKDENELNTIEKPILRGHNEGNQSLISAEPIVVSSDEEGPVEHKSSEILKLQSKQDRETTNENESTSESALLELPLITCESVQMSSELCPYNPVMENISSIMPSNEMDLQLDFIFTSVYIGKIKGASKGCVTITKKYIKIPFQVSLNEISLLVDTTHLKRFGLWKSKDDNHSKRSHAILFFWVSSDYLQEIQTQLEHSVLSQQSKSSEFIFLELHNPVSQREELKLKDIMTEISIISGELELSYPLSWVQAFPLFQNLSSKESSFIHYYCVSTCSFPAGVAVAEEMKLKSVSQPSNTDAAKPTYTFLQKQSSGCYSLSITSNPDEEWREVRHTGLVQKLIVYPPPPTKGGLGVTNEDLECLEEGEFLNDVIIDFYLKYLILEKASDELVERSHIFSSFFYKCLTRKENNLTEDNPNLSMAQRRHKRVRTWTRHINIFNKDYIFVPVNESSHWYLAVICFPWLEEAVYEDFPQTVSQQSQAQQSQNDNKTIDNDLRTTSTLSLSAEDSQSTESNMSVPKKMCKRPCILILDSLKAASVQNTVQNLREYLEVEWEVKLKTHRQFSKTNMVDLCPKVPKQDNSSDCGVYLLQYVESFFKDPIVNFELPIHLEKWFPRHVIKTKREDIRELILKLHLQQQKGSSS

[30] = target: T3, Caspase-3; assay type: functional
[31] = target: T8, Sentrin-specific protease 6 (Homo sapiens, UniProt Q9GZR1); assay type: functional;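 note: Luminescence-based dose-response confirmatory assay of SENP6 inhibition, following up an ultra-high-throughput screen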
T8 sequence (Q9GZR1 whole entry): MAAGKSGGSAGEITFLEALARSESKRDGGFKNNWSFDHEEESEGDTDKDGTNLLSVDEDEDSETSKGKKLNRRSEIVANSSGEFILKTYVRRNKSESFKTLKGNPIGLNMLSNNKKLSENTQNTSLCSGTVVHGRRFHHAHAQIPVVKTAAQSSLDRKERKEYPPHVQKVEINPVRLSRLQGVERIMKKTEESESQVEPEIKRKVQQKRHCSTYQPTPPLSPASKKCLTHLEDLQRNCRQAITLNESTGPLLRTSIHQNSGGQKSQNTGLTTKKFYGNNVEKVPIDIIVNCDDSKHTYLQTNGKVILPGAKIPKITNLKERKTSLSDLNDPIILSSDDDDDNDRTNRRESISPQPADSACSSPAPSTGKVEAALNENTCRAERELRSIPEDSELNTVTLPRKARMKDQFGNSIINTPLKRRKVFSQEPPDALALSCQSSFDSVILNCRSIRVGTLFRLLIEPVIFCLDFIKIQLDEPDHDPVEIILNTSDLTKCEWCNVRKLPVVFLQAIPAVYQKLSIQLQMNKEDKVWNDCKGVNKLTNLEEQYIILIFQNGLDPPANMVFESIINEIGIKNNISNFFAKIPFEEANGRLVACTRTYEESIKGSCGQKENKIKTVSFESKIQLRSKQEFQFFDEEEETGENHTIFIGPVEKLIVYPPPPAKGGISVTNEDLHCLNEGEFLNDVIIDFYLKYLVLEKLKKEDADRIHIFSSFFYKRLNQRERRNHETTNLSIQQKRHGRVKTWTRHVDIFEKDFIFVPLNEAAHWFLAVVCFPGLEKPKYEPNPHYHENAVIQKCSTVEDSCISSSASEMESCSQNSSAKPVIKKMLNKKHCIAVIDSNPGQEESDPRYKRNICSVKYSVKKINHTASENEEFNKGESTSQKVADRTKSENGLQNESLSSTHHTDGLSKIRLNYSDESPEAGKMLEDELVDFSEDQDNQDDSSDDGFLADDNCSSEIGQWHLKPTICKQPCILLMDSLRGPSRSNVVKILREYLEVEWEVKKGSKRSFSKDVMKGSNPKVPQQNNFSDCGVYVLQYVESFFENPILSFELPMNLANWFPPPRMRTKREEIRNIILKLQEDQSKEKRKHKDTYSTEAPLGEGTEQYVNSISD

## O=C(O)c1[nH]c2ccc(Br)cc2c1CCN1C(=O)c2cccc([N+](=O)[O-])c2C1=O
[1]
  AC50: 23.1 µM (active)
[2]
  IC50: > 59.6 µM (inactive)
[3]
  IC50: > 59.6 µM (inactive)
[4]
  IC50: > 59.6 µM (inactive)

## C[C@@H]1CN([C@@H](C)CO)C(=O)c2cccc(NC(=O)c3ccncc3)c2O[C@H]1CN(C)Cc1ccc(-c2ccccc2)cc1
[5]
  IC50: 1.2 µM (active)
[6]
  AC50: 21.9 µM (active)
[7]
  IC50: 13.5 µM (active)
[8]
  IC50: 13.3 µM (inactive)
[9]
  IC50: 729 nM (active)
[10]
  IC50: 1.2 µM (active)
[11]
  AC50: 80 nM (active)
[12]
  IC50: 146 nM (active)

## CC[C@H](CO)Oc1cc(NCc2cccc(N)c2)c2ncn(C(C)C)c2c1
[13]
  AC50: 4.66 µM (active)
[14]
  AC50: 1.58 µM (active)
[15]
  AC50: 31.8 µM (active)
[16]
  IC50: 8.35 µM (active)
[17]
  IC50: 1.87 µM (active)
[18]
  IC50: 1.65 µM (active)
[19]
  AC50: 46.5 µM (active)
[20]
  AC50: 3.87 µM (active)

## O=C(NC(=S)NNC(=O)c1ccccc1O)c1cccnc1
[21]
  IC50: 7.11 µM (active)
[22]
  IC50: > 94.1 µM (inactive)

## C[C@@H](NC(=O)C[C@H]1C=C[C@@H](NC(=O)Cc2ccccn2)[C@H](CO)O1)c1ccccc1
[23]
  AbsAC35: 52.1 µM

## N#Cc1ccc(-c2nc3ccc(Cl)cn3c2Cc2ccccc2C(F)(F)F)cc1
[24]
  IC50: 9.87 µM (active)
[25]
  IC50: 8.47 µM (active)

## C[C@H]1CN([C@@H](C)CO)C(=O)c2cccc(NC(=O)c3ccncc3)c2O[C@@H]1CN(C)Cc1ccccc1Cl
[26]
  AC50: 165 nM (active)

## CCc1cccc2c(C(=O)COC(=O)c3ccccc3)c[nH]c12
[27]
  IC50: > 100 µM (inactive)
[28]
  EC50: > 20 µM (inactive)
[29]
  IC50: 4.08 µM (active)
[30]
  IC50: 49.9 µM (active)
[31]
  IC50: > 100 µM (inactive)
